Test results as given in patent US8859215B2, “Cell binding assay” (GE Healthcare Bio-Sciences AB, priority 2011, dated 2014).
Entries after “also recorded” stand apart in the source; their conditions may differ.

Test system: Multicellular Tumor Spheroids (MTS)
Assay: Fluorescent cell binding assay: Cy3 Annexin V binding to drug treated cells, Western blotting, normalized to actin (apoptosis assay)
Assay type: cell-based
Experimental: Doxorubicin is an anti-cancer drugs aimed to inhibit uncontrolled cell proliferation by inducing apoptosis in cells. Multicellular Tumor Spheroids were treated with Doxorubicin and incubated with Cy 3 Annexin V. The cells are lysed and the proteins are separated and transferred to a membrane. Cy 3 Annexin V can be detected simultaneously with actin targeted by ECL Plex Cy5Western Blotting. The amount of Annexin V binding to the cells upon treatment can easily be quantified after normalization to the house-keeping protein actin.
Cancer cells, Multicellular Tumor Spheroids (MTS) (Sanitini et al. Critical Rev Oncol Hematol 2001, 36:75-87) were treated for 3 days with […] different concentrations (1 μM, 5 μM and 10 μM) of the cancer drug Doxorubicin. To determine the level of drug induced apoptosis the cells were incubated with Cy3 conjugated Annexin V. Non-bound Cy 3 Annexin V was washed away with PBS followed by cell lysis using mammalian cell protein extraction buffer (GE Healthcare). […]
The signals from bound Cy 3 Annexin V and Cy 5 actin are detected simultaneously by scanning the membrane in Cy3 and Cy5 channels using a Typhoon Imager (GE Healthcare, FIG. 2a). The image was analysed with Image Quant TL software (GE Healthcare). […] In this way any uneven sample loading is corrected for and very accurate quantification of the cells capacity to bind Annexin V is determined. […]

## COc1cccc2c1C(=O)c1c(O)c3c(c(O)c1C2=O)C[C@@](O)(C(=O)CO)C[C@@H]3O[C@H]1C[C@H](N)[C@H](O)[C@H](C)O1 [Doxorubicin]
Cancer cells (MTS) treated for 3 days with 1 μM, 5 μM and 10 μM, compared against control (no treatment)
  Annexin V binding to cells (signal ratio Cy3 Annexin V : Cy5 actin), indicating apoptosis: dose dependent binding of Annexin V to treated cells; also recorded: dose dependent Annexin V binding to cells up to 5 μM
Treatment with 10 μM for 3 days, MTS cells
  Annexin V binding to cells (signal ratio Cy3 Annexin V : Cy5 actin): decrease of the Annexin V binding
